Consider one compound from paper PMC4775402 (Pharmacological research, 2016).

Common to all, as to type: cell-based
For one experiment, the target named is WT P2RY1 (Homo sapiens, UniProt P47900). As to the kind of experiment: Label-free DMR agonist response, HEK293T expressing WT P2RY1.
Another experiment deals with ΔPDZ P2RY1 (Homo sapiens, UniProt P47900). As to the kind of experiment: Label-free DMR agonist response, HEK293T expressing ΔPDZ P2RY1.
The target in the next experiment is WT P2RY12 (Homo sapiens, UniProt Q9H244). As to the kind of experiment: Label-free DMR agonist response, HEK293T expressing WT P2RY12.
Sequence of WT P2RY12 (Q9H244 whole entry, one chain of several): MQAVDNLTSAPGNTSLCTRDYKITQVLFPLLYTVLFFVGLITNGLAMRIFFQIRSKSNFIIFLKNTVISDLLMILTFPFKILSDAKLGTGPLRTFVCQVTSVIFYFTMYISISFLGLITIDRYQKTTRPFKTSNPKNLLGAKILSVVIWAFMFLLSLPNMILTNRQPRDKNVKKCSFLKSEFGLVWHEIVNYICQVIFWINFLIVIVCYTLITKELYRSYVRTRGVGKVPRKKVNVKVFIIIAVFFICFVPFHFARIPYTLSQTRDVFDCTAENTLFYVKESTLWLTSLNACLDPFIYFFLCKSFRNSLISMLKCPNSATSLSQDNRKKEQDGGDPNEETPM
For the next experiment, the target named is ΔPDZ P2RY12 (Homo sapiens, UniProt Q9H244). The experiment can be described thus: Label-free DMR agonist response, HEK293T expressing ΔPDZ P2RY12.
Sequence of ΔPDZ P2RY12 (Q9H244 1-338 limits assumed, stated change not applied, one chain of several): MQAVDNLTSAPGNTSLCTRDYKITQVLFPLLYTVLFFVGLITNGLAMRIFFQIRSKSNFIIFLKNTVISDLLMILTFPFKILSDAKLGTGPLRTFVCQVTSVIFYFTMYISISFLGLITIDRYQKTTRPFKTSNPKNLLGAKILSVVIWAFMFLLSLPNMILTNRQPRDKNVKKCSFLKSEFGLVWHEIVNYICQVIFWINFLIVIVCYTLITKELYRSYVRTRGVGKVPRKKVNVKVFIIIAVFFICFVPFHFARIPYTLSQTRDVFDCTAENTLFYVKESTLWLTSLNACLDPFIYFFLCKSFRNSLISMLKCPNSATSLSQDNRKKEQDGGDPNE

Sequence of ΔPDZ P2RY1 (P47900 1-369 limits assumed, stated change not applied): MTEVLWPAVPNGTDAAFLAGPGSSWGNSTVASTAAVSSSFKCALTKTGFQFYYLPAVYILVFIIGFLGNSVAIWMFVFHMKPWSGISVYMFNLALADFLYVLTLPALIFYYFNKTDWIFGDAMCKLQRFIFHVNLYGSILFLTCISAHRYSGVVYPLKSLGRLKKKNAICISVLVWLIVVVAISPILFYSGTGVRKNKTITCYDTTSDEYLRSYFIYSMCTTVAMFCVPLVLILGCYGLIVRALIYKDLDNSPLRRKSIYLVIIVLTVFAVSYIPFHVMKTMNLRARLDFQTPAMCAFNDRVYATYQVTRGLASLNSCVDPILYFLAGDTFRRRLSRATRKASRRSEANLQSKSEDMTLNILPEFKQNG
Sequence of WT P2RY1 (P47900 whole entry): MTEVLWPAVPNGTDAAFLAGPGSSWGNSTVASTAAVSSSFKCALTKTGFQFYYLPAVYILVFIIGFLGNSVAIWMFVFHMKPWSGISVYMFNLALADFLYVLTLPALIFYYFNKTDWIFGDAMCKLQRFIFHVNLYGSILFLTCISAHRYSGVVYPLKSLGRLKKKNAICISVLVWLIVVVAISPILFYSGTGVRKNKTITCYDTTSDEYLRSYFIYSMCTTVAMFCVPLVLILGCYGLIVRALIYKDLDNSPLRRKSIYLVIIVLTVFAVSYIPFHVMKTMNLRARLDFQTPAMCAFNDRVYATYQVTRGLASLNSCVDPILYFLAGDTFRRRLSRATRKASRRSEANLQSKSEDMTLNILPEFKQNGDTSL

With `O=c1ccn([C@@H]2O[C@H](COP(=O)(O)OP(=O)(O)OP(=O)(O)O)[C@@H](O)[C@H]2O)c(=O)[nH]1` [UTP], the “WT pEC50” value on WT P2RY1 (HEK293T, WT P2RY1, DMR CRC) was −5.39 ± 0.15; on WT P2RY12 (HEK293T, WT P2RY12, DMR CRC), −5.47 ± 0.07. The “WT Max (DMR)” value on WT P2RY1 (HEK293T, WT P2RY1, maximal agonist DMR response) was determined as 116.19 ± 2.22; at WT P2RY12 (HEK293T, WT P2RY12, maximal agonist DMR response), 170.04 ± 2.93. In addition, the “WT TTP” value turned out to be 4.87 s on WT P2RY1 (HEK293T, WT P2RY1, time to peak DMR) and 5.40 s on WT P2RY12 (HEK293T, WT P2RY12, time to peak DMR). For the same compound, the “Agonist potency (in words)” value on WT P2RY1 (P2Y receptors (P2RY1), DMR) is given as “micromolar”; on WT P2RY12 (P2Y receptors (P2RY12), DMR), “micromolar”. Besides, the “ΔPDZ pEC50” value on ΔPDZ P2RY1 (ΔPDZ P2RY1, DMR CRC) was −5.69 ± 0.19; on ΔPDZ P2RY12 (ΔPDZ P2RY12, DMR CRC), −5.70 ± 0.08. Moreover, the “ΔPDZ Max (DMR)” value was found to be 118.68 ± 10.27 on ΔPDZ P2RY1 (ΔPDZ P2RY1, maximal agonist DMR response) and 192.60 ± 6.35 at ΔPDZ P2RY12 (ΔPDZ P2RY12, maximal agonist DMR response). Moreover, the “ΔPDZ TTP” value is 5.27 s at ΔPDZ P2RY1 (ΔPDZ P2RY1, time to peak DMR) and 5.20 s on ΔPDZ P2RY12 (ΔPDZ P2RY12, time to peak DMR).
